Laboratory results from ChEMBL document CHEMBL1159143, “Benzofuran based non-peptide antagonists of angiotensin II related to GR117289: part IV; imidazopyridinylbenzofurans” (Bioorg Med Chem Lett, 1994).

Legend:
[1] = tested on: Type-1 angiotensin II receptor (Oryctolagus cuniculus); test: In vitro inhibitory activity against Angiotensin II receptor in rabbit aorta was evaluated
[2] = Oral bioavailability in rat; assay type: ADME, organism-based; settings: in vivo
[3] = Compound was tested for plasma half-life period in rat; assay type: ADME, organism-based
[4] = Volume distribution in rat; assay type: ADME, organism-based; settings: in vivo
[5] = Compound was tested for plasma clearance in rats; assay type: ADME, organism-based; settings: rat, read-out: Clp

| pKB [1] | bioavailability [2] | half-life [3] | Vd [4] | clearance [5] | SMILES |
| --- | --- | --- | --- | --- | --- |
| 8.3 |  |  |  |  | CCc1nc2c(C)ccnc2n1Cc1ccc2oc(-c3ccccc3NS(=O)(=O)C(F)(F)F)c(Br)c2c1 |
| 9.3 |  |  |  |  | CCc1nc2c(C)cc(C(=O)O)nc2n1Cc1ccc2oc(-c3ccccc3NS(=O)(=O)C(F)(F)F)c(Br)c2c1 |
| 9.3 | 70% | 2.8 h | 1.33 L/kg | 5.49 mL/min/kg | CCc1nc2c(C)cc(C)nc2n1Cc1ccc2oc(-c3ccccc3NS(=O)(=O)C(F)(F)F)c(Br)c2c1 |
| 8.6 | 115% | 5.7 h | 2.4 L/kg | 4.8 mL/min/kg | CCc1nc2c(C)cc(CO)nc2n1Cc1ccc2oc(-c3ccccc3NS(=O)(=O)C(F)(F)F)c(Br)c2c1 |
